# Measurements taken from PubChem BioAssay AID1918945 (Molecular Pharmacology Branch, DTP, NCI, 2023).
# Values joined by “and” are separate entries in the source; they are usually repeats but may differ in a detail not shown here. Identical values can stand only once.
# System: 883617-216-R-J1-PDC complex spheroid viability
# Experiment: Anticancer human tumor 883617-216-R-J1-PDC patient-derived bladder carcinoma cell line growth inhibition
# Conditions: for viability, T/C: stronger effect = lower value
# Method in brief: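 Complex spheroids of tumor cells with HUVEC and human MSCs, exposed to iadademstat combined with other agents. Each agent tested in half-log steps from near clinical Cmax (else 10 microM top), DMSO ≤0.25%.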
# [1] = curve of first compound, second compound 0.1 µM
# [2] = curve of first compound, second compound 0.316 µM
# [3] = curve of first compound, second compound 1 µM
# [4] = curve of first compound, second compound 3.16 µM
# [5] = curve of first compound, second compound 10 µM
# 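Note: exposure lasted seven days after three days of spheroid growth.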
# 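Throughout, for viability, T/C: 100% = DMSO vehicle control luminescence.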
structure (smiles),measurement,setting,value
Nc1ncn(C2CC(O)C(CO)O2)c(=O)n1 (centres undefined) + NC1CCC(NC2CC2c2ccccc2)CC1,IC50,[1],> 1000 nM
same,IC50,[2],> 1000 nM
same,IC50,[3],> 1000 nM
same,IC50,[4],> 1000 nM
same,IC50,[5],> 1000 nM
same,"viability, T/C","second compound 0.1 µM, first compound 0.00316 µM",109%
same,"viability, T/C","second compound 0.1 µM, first compound 0.01 µM",99.4%
same,"viability, T/C","second compound 0.1 µM, first compound 0.0316 µM",94.7%
same,"viability, T/C","second compound 0.1 µM, first compound 0.1 µM",78.1%
same,"viability, T/C","second compound 0.1 µM, first compound 0.316 µM",72.6%
same,"viability, T/C","second compound 0.1 µM, first compound 1 µM",62.4%
same,"viability, T/C","second compound 0.316 µM, first compound 0.00316 µM",103%
same,"viability, T/C","second compound 0.316 µM, first compound 0.01 µM",115%
same,"viability, T/C","second compound 0.316 µM, first compound 0.0316 µM",102%
same,"viability, T/C","second compound 0.316 µM, first compound 0.1 µM",89.8%
same,"viability, T/C","second compound 0.316 µM, first compound 0.316 µM",79.4%
same,"viability, T/C","second compound 0.316 µM, first compound 1 µM",67.1%
same,"viability, T/C","second compound 1 µM, first compound 0.00316 µM",103%
same,"viability, T/C","second compound 1 µM, first compound 0.01 µM",98.8%
same,"viability, T/C","second compound 1 µM, first compound 0.0316 µM",96.7%
same,"viability, T/C","second compound 1 µM, first compound 0.1 µM",89.6%
same,"viability, T/C","second compound 1 µM, first compound 0.316 µM",77.7%
same,"viability, T/C","second compound 1 µM, first compound 1 µM",69.6%
same,"viability, T/C","second compound 3.16 µM, first compound 0.00316 µM",108%
same,"viability, T/C","second compound 3.16 µM, first compound 0.01 µM",100%
same,"viability, T/C","second compound 3.16 µM, first compound 0.0316 µM",92.4%
same,"viability, T/C","second compound 3.16 µM, first compound 0.1 µM",84.8%
same,"viability, T/C","second compound 3.16 µM, first compound 0.316 µM",78.6%
same,"viability, T/C","second compound 3.16 µM, first compound 1 µM",66.9%
same,"viability, T/C","second compound 10 µM, first compound 0.00316 µM",101%
same,"viability, T/C","second compound 10 µM, first compound 0.01 µM",106%
same,"viability, T/C","second compound 10 µM, first compound 0.0316 µM",108%
same,"viability, T/C","second compound 10 µM, first compound 0.1 µM",92.3%
same,"viability, T/C","second compound 10 µM, first compound 0.316 µM",93.8%
same,"viability, T/C","second compound 10 µM, first compound 1 µM",77.6%
CC(C)CC(NC(=O)CNC(=O)c1cc(Cl)ccc1Cl)B1OC(=O)CC(CC(=O)O)(C(=O)O)O1 (centres undefined),"viability, T/C",compound 0.000316 µM,101% and 95.7%
same,"viability, T/C",compound 0.001 µM,106% and 87%
same,"viability, T/C",compound 0.00316 µM,85% and 52.1%
same,"viability, T/C",compound 0.01 µM,39.5% and 23.1%
same,"viability, T/C",compound 0.0316 µM,15.8% and 1.76%
same,"viability, T/C",compound 0.1 µM,2.31% and 0.36%
same,IC50,curve of compound,7.91 nM and 3.68 nM
COc1cc(C2c3cc4c(cc3C(OC3OC5COC(C)OC5C(O)C3O)C3COC(=O)C23)OCO4)cc(OC)c1O (centres undefined),"viability, T/C",compound 0.00949 µM,94.6% and 80.4%
same,"viability, T/C",compound 0.03 µM,99.6% and 65.2%
same,"viability, T/C",compound 0.0949 µM,64.6% and 46.6%
same,"viability, T/C",compound 0.3 µM,45.4% and 38.4%
same,"viability, T/C",compound 0.949 µM,44.4% and 41.1%
same,"viability, T/C",compound 3 µM,35.4% and 29.4%
same,IC50,curve of compound,198 nM and 87.6 nM
O=C(C=Cc1cccc(S(=O)(=O)Nc2ccccc2)c1)NO + NC1CCC(NC2CC2c2ccccc2)CC1,IC50,[1],142 nM
same,IC50,[2],131 nM
same,IC50,[3],139 nM
same,IC50,[4],139 nM
same,IC50,[5],124 nM
same,"viability, T/C","second compound 0.1 µM, first compound 0.00949 µM",102%
same,"viability, T/C","second compound 0.1 µM, first compound 0.03 µM",92.8%
same,"viability, T/C","second compound 0.1 µM, first compound 0.0949 µM",55.3%
same,"viability, T/C","second compound 0.1 µM, first compound 0.3 µM",31.2%
same,"viability, T/C","second compound 0.1 µM, first compound 0.949 µM",20.7%
same,"viability, T/C","second compound 0.1 µM, first compound 3 µM",2.88%
same,"viability, T/C","second compound 0.316 µM, first compound 0.00949 µM",108%
same,"viability, T/C","second compound 0.316 µM, first compound 0.03 µM",98.6%
same,"viability, T/C","second compound 0.316 µM, first compound 0.0949 µM",50%
same,"viability, T/C","second compound 0.316 µM, first compound 0.3 µM",31.7%
same,"viability, T/C","second compound 0.316 µM, first compound 0.949 µM",20.9%
same,"viability, T/C","second compound 0.316 µM, first compound 3 µM",2.02%
same,"viability, T/C","second compound 1 µM, first compound 0.00949 µM",95.7%
same,"viability, T/C","second compound 1 µM, first compound 0.03 µM",84.3%
same,"viability, T/C","second compound 1 µM, first compound 0.0949 µM",57.4%
same,"viability, T/C","second compound 1 µM, first compound 0.3 µM",30.8%
same,"viability, T/C","second compound 1 µM, first compound 0.949 µM",18.9%
same,"viability, T/C","second compound 1 µM, first compound 3 µM",2.72%
same,"viability, T/C","second compound 3.16 µM, first compound 0.00949 µM",101%
same,"viability, T/C","second compound 3.16 µM, first compound 0.03 µM",84.2%
same,"viability, T/C","second compound 3.16 µM, first compound 0.0949 µM",55.7%
same,"viability, T/C","second compound 3.16 µM, first compound 0.3 µM",34.2%
same,"viability, T/C","second compound 3.16 µM, first compound 0.949 µM",17.8%
same,"viability, T/C","second compound 3.16 µM, first compound 3 µM",2.63%
same,"viability, T/C","second compound 10 µM, first compound 0.00949 µM",99.5%
same,"viability, T/C","second compound 10 µM, first compound 0.03 µM",76.4%
same,"viability, T/C","second compound 10 µM, first compound 0.0949 µM",55.3%
same,"viability, T/C","second compound 10 µM, first compound 0.3 µM",32.6%
same,"viability, T/C","second compound 10 µM, first compound 0.949 µM",19.6%
same,"viability, T/C","second compound 10 µM, first compound 3 µM",1.64%
